Several values for one entry are separate records, joined by “and”; a condition that tells them apart may be missing. Equal values may be shown once.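 Grown in 96-well plates, cells were treated for 48 hours with each compound at five concentrations. Insufficient inhibition: endpoint recorded as highest concentration tested. Abbreviation: GI50, concentration required for 50% inhibition of growth. TGI is the concentration that stops growth completely.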

Among the test systems are ACHN renal; CAKI-1 renal; EKVX NSCLC; HCT-116 colon; M14 melanoma; MDA-MB-231 breast; NCI/ADR-RES ovarian; RPMI-8226 leukemia; RXF 393 renal; SNB-19 CNS.
Experiment in all cases: growth of human tumour cells (NCI), 48 h

Take `O=C1OCC2=C1C(c1cccc(Cl)c1)c1cc3c(cc1N2CCO)CCC3` (configuration not stated): the GI50 is 84.6 nM in the assay with ACHN renal; 49.3 nM with CAKI-1 renal; 295 nM with EKVX NSCLC; 44.7 nM in the assay with HCT-116 colon; 36.6 nM in the assay with M14 melanoma; 217 nM in the assay on MDA-MB-231 breast. The GI50 in the assay with NCI/ADR-RES ovarian was 28.9 nM; in the assay with RPMI-8226 leukemia it was 38.6 nM; in the assay with RXF 393 renal it was 23.8 nM; in the assay with SNB-19 CNS, 64.4 nM. Further, the TGI with ACHN renal is 14.6 µM; in the assay on CAKI-1 renal it was 14.7 µM; in the assay with EKVX NSCLC, 17.2 µM; in the assay on HCT-116 colon, 2920 nM; in the assay with M14 melanoma, 4.46 µM; with MDA-MB-231 breast, 2.21 µM. The figures for the TGI in the assay with NCI/ADR-RES ovarian, with RPMI-8226 leukemia and with SNB-19 CNS were 0.108 µM, 10.1 µM and 17.3 µM, respectively.
Take `CCCCOC(=O)c1c(C)[nH]c(/C=C2\N=C(c3ccc[nH]3)C=C2OC)c1C`: the GI50 in the assay on ACHN renal was 146 nM; with CAKI-1 renal, 71 nM; in the assay on EKVX NSCLC, 460 nM; in the assay on HCT-116 colon, 41.2 nM; in the assay with M14 melanoma it was 171 nM; with MDA-MB-231 breast it was 56 nM. The GI50 in the assay with NCI/ADR-RES ovarian was 121 nM; in the assay with RPMI-8226 leukemia, 175 nM; with RXF 393 renal it was 537 nM; in the assay with SNB-19 CNS it was 1180 nM. In addition, the TGI was 1.3 µM in the assay with ACHN renal; 3.85 µM in the assay with CAKI-1 renal; 4.88 µM in the assay with EKVX NSCLC; 1360 nM in the assay with HCT-116 colon; 2.01 µM in the assay on M14 melanoma; 0.764 µM with MDA-MB-231 breast. In addition, the TGI with NCI/ADR-RES ovarian was 2.92 µM; with RPMI-8226 leukemia, 2.04 µM; in the assay with RXF 393 renal, 3.07 µM; in the assay on SNB-19 CNS it was greater than 56.1 µM.
Consider `CC[C@@H](C)/C=C(C)/C=C/C(=O)c1c(O)c(-c2ccc(O)cc2)cn(OC2CC(=O)CCC(C)OC(=O)CC2O)c1=O` (some centres not stated), for which the GI50 with ACHN renal was 258 nM; with CAKI-1 renal, 361 nM; with EKVX NSCLC, 1390 nM; in the assay on HCT-116 colon, 272 nM; in the assay with M14 melanoma it was 258 nM; in the assay on MDA-MB-231 breast it was 850 nM. Further, the GI50 in the assay on NCI/ADR-RES ovarian was 286 nM; with RPMI-8226 leukemia, 463 nM; in the assay on RXF 393 renal, 386 nM; with SNB-19 CNS, 554 nM. Also, the TGI was 7.06 µM in the assay on ACHN renal; 3 µM with CAKI-1 renal; 12.3 µM in the assay with EKVX NSCLC; 13000 nM in the assay on HCT-116 colon; 2.38 µM with M14 melanoma; 24.3 µM in the assay with MDA-MB-231 breast. Further, the TGI in the assay on NCI/ADR-RES ovarian stood at 3.03 µM; in the assay on RPMI-8226 leukemia, 22.9 µM; in the assay with RXF 393 renal it was 17.8 µM; with SNB-19 CNS, 14.9 µM.
With `Cc1c(Cl)c(C)c(Cl)c(O)c1Cl`, the TGI with ACHN renal is 72.5 µM; with CAKI-1 renal, 62.7 µM; in the assay with EKVX NSCLC it was 82.1 µM; with HCT-116 colon, 39600 nM; with M14 melanoma, 49.1 µM; in the assay on MDA-MB-231 breast, greater than 100 µM. Besides, the TGI with NCI/ADR-RES ovarian was 72.6 µM; in the assay on RPMI-8226 leukemia, 68.3 µM; in the assay with RXF 393 renal, greater than 100 µM; with SNB-19 CNS it was greater than 100 µM.
In the case of `Cc1cc(C)c2c(c1)N(C)c1ncnc(-n3cnc4cc(C)ccc43)c1CC2C` (configuration not stated), the GI50 is 4070 nM in the assay with ACHN renal; 3370 nM with CAKI-1 renal; 4760 nM with EKVX NSCLC; 3080 nM in the assay with HCT-116 colon; 2600 nM in the assay with M14 melanoma; 3030 nM in the assay with MDA-MB-231 breast. Further, the GI50 in the assay on NCI/ADR-RES ovarian was 3050 nM; with RPMI-8226 leukemia, 2590 nM; with RXF 393 renal it was 2660 nM; with SNB-19 CNS it was 4220 nM. The TGI in the assay with ACHN renal was 18.3 µM; in the assay on CAKI-1 renal it was 70.2 µM; in the assay with EKVX NSCLC, greater than 100 µM; with HCT-116 colon it was 14600 nM; with M14 melanoma, 11.2 µM; in the assay with MDA-MB-231 breast, 14.6 µM. Besides, the TGI with NCI/ADR-RES ovarian was 19.5 µM; in the assay on RPMI-8226 leukemia it was 9.08 µM; with RXF 393 renal, 9.06 µM; in the assay on SNB-19 CNS, greater than 100 µM.
On to `CCC(C)C1NC(=O)C(NC(=O)C(CC(C)C)N(C)C(=O)[C@@H]2CC(O)CN2C(=O)[C@H](C)O)C(C)OC(=O)[C@H](Cc2ccc(OC)cc2)N(C)C(=O)[C@@H]2CCCN2C(=O)[C@H](CC(C)C)NC(=O)C(C)C(=O)[C@H](C(C)C)OC(=O)CC1O` (some centres not stated), for which the GI50 is 131 nM with ACHN renal; 229 nM with CAKI-1 renal; less than 10 nM with HCT-116 colon; 11.4 nM with M14 melanoma; 92.6 nM in the assay with MDA-MB-231 breast; 69.5 nM in the assay with RPMI-8226 leukemia. The GI50 in the assay with RXF 393 renal and in the assay on SNB-19 CNS was less than 10 nM throughout. For the same molecule, the TGI in the assay on ACHN renal is 8.74 µM and 5.22 µM; with CAKI-1 renal, 2.99 µM; with EKVX NSCLC, 3.32 µM; in the assay on HCT-116 colon, 1010 nM and 1600 nM; in the assay on M14 melanoma, 0.762 µM and 0.202 µM; in the assay on MDA-MB-231 breast, 0.991 µM and 3.95 µM. The TGI was greater than 100 µM in the assay on NCI/ADR-RES ovarian; 1.77 µM in the assay on RPMI-8226 leukemia; 0.481 µM and 0.112 µM with RXF 393 renal; 3.39 µM and 0.346 µM in the assay on SNB-19 CNS.
Regarding `O=C(CN1CCN(C(=O)c2ccco2)CC1)Nc1ccc(Cl)cc1C(=O)c1ccccc1Cl`, the GI50 with ACHN renal is 10300 nM; in the assay on CAKI-1 renal, 27.3 nM; with EKVX NSCLC, 5530 nM; with HCT-116 colon it was 13000 nM; in the assay on M14 melanoma, 12500 nM; with MDA-MB-231 breast, 9510 nM. The GI50 with NCI/ADR-RES ovarian was 10000 nM; with RPMI-8226 leukemia it was 1330 nM; in the assay with RXF 393 renal it was 3850 nM; in the assay on SNB-19 CNS, 12100 nM. In addition, the TGI was found to be 43.7 µM in the assay on ACHN renal; 6.42 µM with CAKI-1 renal; 30 µM in the assay on EKVX NSCLC; 26900 nM in the assay with HCT-116 colon; 28.1 µM with M14 melanoma; 46.1 µM with MDA-MB-231 breast. For the same molecule, the TGI with NCI/ADR-RES ovarian was 43.8 µM; with RPMI-8226 leukemia, 12.1 µM; with RXF 393 renal, 18 µM; in the assay with SNB-19 CNS, 94.7 µM.
Take `O=C1c2ccc3c4c(ccc(c24)C(=O)N1CCNCc1ccccc1)C(=O)N(CCNCc1ccccc1)C3=O`: the GI50 is 3190 nM in the assay on ACHN renal; 1880 nM in the assay on CAKI-1 renal; 2030 nM with EKVX NSCLC; 1420 nM with HCT-116 colon; 1850 nM in the assay on M14 melanoma; 2310 nM in the assay with MDA-MB-231 breast. For the same molecule, the GI50 in the assay with NCI/ADR-RES ovarian is 1810 nM; with RPMI-8226 leukemia it was 2000 nM; in the assay on RXF 393 renal, 1410 nM; with SNB-19 CNS, 2670 nM. Besides, the TGI in the assay on ACHN renal stood at 13.5 µM; with CAKI-1 renal, 4.91 µM; in the assay on EKVX NSCLC, 6.02 µM; in the assay on HCT-116 colon, 2890 nM; with M14 melanoma, 3.27 µM; in the assay on MDA-MB-231 breast it was 6.61 µM. Also, the TGI in the assay on NCI/ADR-RES ovarian turned out to be 4.94 µM; in the assay with RPMI-8226 leukemia, 5.12 µM; with RXF 393 renal, 4.21 µM; in the assay on SNB-19 CNS, 9.28 µM.
With `COC(=O)[C@]12CC[C@@H](C)[C@H](C)[C@@H]1C1=CC[C@@H]3[C@@](C)(CC#N)C4=C(C[C@@]3(C)[C@]1(C)CC2)OC[C@]4(C)C=O`, the GI50 was 6420 nM in the assay on ACHN renal; 6320 nM in the assay on CAKI-1 renal; 4320 nM in the assay with EKVX NSCLC; 2780 nM in the assay on HCT-116 colon; 3460 nM with M14 melanoma; 3340 nM in the assay with MDA-MB-231 breast. Also, the GI50 with NCI/ADR-RES ovarian is 4260 nM; in the assay on RPMI-8226 leukemia, 3050 nM; in the assay on RXF 393 renal, 12000 nM; in the assay with SNB-19 CNS, 3770 nM. In addition, the TGI with ACHN renal was greater than 100 µM; with CAKI-1 renal, greater than 100 µM; in the assay on EKVX NSCLC, 48.7 µM; in the assay on HCT-116 colon, 10700 nM; with M14 melanoma, 19.9 µM; with MDA-MB-231 breast, 18.5 µM. For the same molecule, the TGI is 38.9 µM with NCI/ADR-RES ovarian, 13.6 µM with RPMI-8226 leukemia, 36.1 µM in the assay with RXF 393 renal and greater than 100 µM with SNB-19 CNS.
In the case of `COc1ccc(/C=C\c2cc(OC)c(OC)c(OC)c2)c(NS(=O)(=O)c2ccc(F)cc2)c1O`, the GI50 in the assay with ACHN renal was 189 nM; in the assay with CAKI-1 renal, 115 nM; in the assay with EKVX NSCLC it was 466 nM; in the assay on HCT-116 colon, 42.8 nM; in the assay with M14 melanoma it was 32.6 nM; in the assay on MDA-MB-231 breast, 97.7 nM. Besides, the GI50 with NCI/ADR-RES ovarian is 179 nM; in the assay with RPMI-8226 leukemia it was 44.8 nM; in the assay with RXF 393 renal, 54.2 nM; in the assay with SNB-19 CNS, 156 nM. In addition, the TGI is 96.9 µM with ACHN renal; greater than 100 µM in the assay with CAKI-1 renal; greater than 100 µM with EKVX NSCLC; greater than 100000 nM in the assay on HCT-116 colon; greater than 100 µM in the assay on M14 melanoma; 70.9 µM with MDA-MB-231 breast. Moreover, the TGI in the assay on NCI/ADR-RES ovarian was 3.4 µM; with RPMI-8226 leukemia, 18.9 µM; in the assay on RXF 393 renal it was greater than 100 µM; in the assay with SNB-19 CNS, greater than 100 µM.
As to `COc1cc2c(cc1[N+](=O)[O-])C(=O)C(Br)(Br)CCC2`, the TGI is 4.47 µM in the assay with ACHN renal; 7.8 µM with CAKI-1 renal; 6.25 µM in the assay on EKVX NSCLC; 1870 nM in the assay with HCT-116 colon; 5.34 µM in the assay on M14 melanoma; 9.42 µM in the assay on MDA-MB-231 breast. For the same molecule, the TGI with NCI/ADR-RES ovarian was found to be 7.31 µM; in the assay on RPMI-8226 leukemia it was 4.07 µM; in the assay with RXF 393 renal, 4.51 µM; with SNB-19 CNS it was 19.5 µM.

(Values after PubChem BioAssay (NCI).)
